These results are taken from BindingDB's records for doi:10.1016/S1074-5521(02)00240-5 (Nippon Roche Research Center, 2002).

Test [1] addresses T1, Glycylpeptide N-tetradecanoyltransferase (Candida albicans (strain SC5314 / ATCC MYA-2876), UniProt P30418).
T1 sequence (P30418 whole entry): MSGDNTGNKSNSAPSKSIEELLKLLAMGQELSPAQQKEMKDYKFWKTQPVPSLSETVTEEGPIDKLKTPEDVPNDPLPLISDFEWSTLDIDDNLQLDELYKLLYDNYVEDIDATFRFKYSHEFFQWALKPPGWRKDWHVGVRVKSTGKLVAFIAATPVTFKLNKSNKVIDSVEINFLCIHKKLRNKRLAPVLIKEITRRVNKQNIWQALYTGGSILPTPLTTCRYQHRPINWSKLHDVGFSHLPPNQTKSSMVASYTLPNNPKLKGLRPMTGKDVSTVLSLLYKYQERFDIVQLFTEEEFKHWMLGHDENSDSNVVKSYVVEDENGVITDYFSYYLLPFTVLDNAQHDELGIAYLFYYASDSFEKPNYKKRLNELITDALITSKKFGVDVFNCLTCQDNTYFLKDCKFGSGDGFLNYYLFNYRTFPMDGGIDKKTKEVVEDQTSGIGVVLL
Description: Inhibition Assay.

Test [2] addresses T2, Glycylpeptide N-tetradecanoyltransferase 1 (Homo sapiens, UniProt P30419).
T2 sequence (P30419 whole entry): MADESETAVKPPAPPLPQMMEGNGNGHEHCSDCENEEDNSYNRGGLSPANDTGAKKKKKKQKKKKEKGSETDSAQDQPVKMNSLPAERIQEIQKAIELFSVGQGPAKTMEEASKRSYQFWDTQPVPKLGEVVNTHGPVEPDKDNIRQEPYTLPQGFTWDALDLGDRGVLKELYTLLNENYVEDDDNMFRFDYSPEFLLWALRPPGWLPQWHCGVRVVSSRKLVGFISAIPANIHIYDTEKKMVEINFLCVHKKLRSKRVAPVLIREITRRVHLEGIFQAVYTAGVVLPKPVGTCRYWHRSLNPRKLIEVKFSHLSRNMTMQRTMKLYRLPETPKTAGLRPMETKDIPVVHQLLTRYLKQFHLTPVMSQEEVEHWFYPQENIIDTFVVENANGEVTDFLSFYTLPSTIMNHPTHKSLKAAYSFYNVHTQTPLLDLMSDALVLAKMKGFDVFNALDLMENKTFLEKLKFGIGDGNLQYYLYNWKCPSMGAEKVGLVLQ
Description: Inhibition Assay.

A word on the IC50: it is the point on the concentration scale where inhibition reaches its midpoint. Higher therefore signals weaker potency in that assay. Consider `COc1ccc(C(=O)NN=Cc2ccccc2C(=O)O)cc1OC` [2-[(veratroylhydrazono)methyl]benzoic acid], for which, in test [1], the 50% inhibitory concentration (IC50) is 830 nM. That is a sub-micromolar value. Regarding `O=C(Nc1ccc(S(=O)(=O)NC2=NCCCCC2)cc1)C1COc2ccccc2O1` (stereo not drawn) [MLS000761278], the IC50 in test [1] was 1100 nM; in test [2], greater than 570000 nM.
